Read-outs that look alike come from different tables or passages of the source.
Test system: cancer cells
Experiment: MTS cell growth inhibition assay (72 hours)
Assay type: cell-based
Outline: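 Growth inhibition read as formazan absorbance at 492 nm after 4 h MTS/PMS, following 72 h compound exposure at 37 °C in 1% FBS DMEM (cells pre-seeded 18 h). IC50 = 50% absorbance reduction; inhibition graded in bands.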

[1] = Homo sapiens, DLD-1, 72 h, DLD-1 cells, read-out: DLD-1 MTS 72 hr at 10 μM
[2] = Homo sapiens, KATO III, 72 h, KATO III cells, read-out: KATO III MTS 72 hr at 10 μM
[3] = Homo sapiens, MDA-MB-231, 72 h, MDA-MB-231 cells, read-out: MDA-MB-231 MTS 72 hr at 10 μM
[4] = Homo sapiens, NCI-H1299, 72 h, NCI-H1299 cells, read-out: NCI-H1299 MTS 72 hr at 10 μM
[5] = PaCa-2, 72 h, PACA-2 cells, read-out: PACA-2 MTS 72 hr at 10 μM

Row | SMILES | inhibition at 10 µM [1] [%] | inhibition at 10 µM [2] [%] | inhibition at 10 µM [3] [%] | inhibition at 10 µM [4] [%] | inhibition at 10 µM [5] [%]
1 | Nc1nc(NC2Cc3ccccc3N(S(=O)(=O)c3cccc(NC(=O)Nc4c(F)cc(Br)cc4F)c3)C2)c2cn[nH]c2n1 (stereo not drawn) [Compound 206, 1-[3-({3-[(6-amino-1H-pyrazolo[3,4-d]pyrimidin-4-yl)amino]-3,4-dihydroquinolin-1(2H)-yl}sulfonyl)phenyl]-3-(4-bromo-2,6-difluorophenyl)urea] | < 50 | 50 to 79 | < 50 | < 50 | 50 to 79
2 | Nc1nc(NC2Cc3ccccc3N(S(=O)(=O)c3ccsc3)C2)c2cn[nH]c2n1 (stereo not drawn) [Compound 67, N4-(1-(thiophen-3-ylsulfonyl)-1,2,3,4-tetrahydroquinolin-3-yl)-1H-pyrazolo[3,4-d]pyrimidine-4,6-diamine] | < 50 | < 50 | < 50 | < 50 | < 50
3 | N#Cc1ccc(S(=O)(=O)N2CC(Nc3nc(N)nc4[nH]ncc34)Cc3ccccc32)cc1 (stereo not drawn) [Compound 30, 4-(3-(6-amino-1H-pyrazolo[3,4-d]pyrimidin-4-ylamino)-3,4-dihydroquinolin-1(2H)-ylsulfonyl)benzonitrile] | < 50 | < 50 | < 50 | < 50 | < 50
4 | Nc1nc(NC2Cc3ccccc3N(S(=O)(=O)c3ccc(NC(=O)Nc4ccc5c(c4)CCC5)cc3)C2)c2cn[nH]c2n1 (stereo not drawn) [Compound 193, 1-[4-({3-[(6-amino-1H-pyrazolo[3,4-d]pyrimidin-4-yl)amino]-3,4-dihydroquinolin-1(2H)-yl}sulfonyl)phenyl]-3-(2,3-dihydro-1H-inden-5-yl)urea] | 50 to 79 | > 79 | 50 to 79 | > 79 | > 79
5 | Nc1nc(NC2Cc3ccccc3N(C(=O)C3CC3)C2)c2cn[nH]c2n1 (stereo not drawn) [Compound 80, (3-(6-amino-1H-pyrazolo[3,4-d]pyrimidin-4-ylamino)-3,4-dihydroquinolin-1(2H)-yl)(cyclopropyl)methanone] | < 50 | < 50 | < 50 | < 50 | < 50
6 | COc1ccc(CCNC(=O)N2CC(Nc3nc(N)nc4[nH]ncc34)Cc3ccccc32)cc1OC (stereo not drawn) [Compound 109, 3-(6-amino-1H-pyrazolo[3,4-d]pyrimidin-4-ylamino)-N-(3,4-dimethoxyphenethyl)-3,4-dihydroquinoline-1(2H)-carboxamide] | < 50 | < 50 | < 50 | < 50 | < 50
7 | Nc1nc(NC2Cc3ccccc3N(C(=O)Nc3ccc(C(F)(F)F)cc3)C2)c2cn[nH]c2n1 (stereo not drawn) [Compound 117, 3-(6-amino-1H-pyrazolo[3,4-d]pyrimidin-4-ylamino)-N-(4-(trifluoromethyl)phenyl)-3,4-dihydroquinoline-1(2H)-carboxamide] | < 50 | < 50 | < 50 | < 50 | < 50
8 | Nc1nc(NC2Cc3ccccc3N(S(=O)(=O)c3ccc(OC(F)(F)F)cc3)C2)c2cn[nH]c2n1 (stereo not drawn) [Compound 68, N4-(1-(4-(trifluoromethoxy)phenylsulfonyl)-1,2,3,4-tetrahydroquinolin-3-yl)-1H-pyrazolo[3,4-d]pyrimidine-4,6-diamine] | < 50 | < 50 | < 50 | < 50 | < 50
9 | Nc1nc(NC2Cc3ccccc3N(Cc3ccccc3OCc3c(Cl)cccc3Cl)C2)c2cn[nH]c2n1 (stereo not drawn) [Compound 152, N4-(1-{2-[(2,6-dichlorobenzyl)oxy]benzyl}-1,2,3,4-tetrahydroquinolin-3-yl)-1H-pyrazolo[3,4-d]pyrimidine-4,6-diamine] | > 79 | 50 to 79 | 50 to 79 | < 50 | < 50
10 | Nc1nc(NC2Cc3ccccc3N(S(=O)(=O)c3cccc(NC(=O)Nc4ccc5ccccc5c4)c3)C2)c2cn[nH]c2n1 (stereo not drawn) [Compound 212, 1-[3-({3-[(6-amino-1H-pyrazolo[3,4-d]pyrimidin-4-yl)amino]-3,4-dihydroquinolin-1(2H)-yl}sulfonyl)phenyl]-3-(2-naphthyl)urea] | > 79 | > 79 | > 79 | > 79 | > 79
11 | Nc1nc(NC2Cc3ccccc3N(S(=O)(=O)c3ccc(F)c(F)c3)C2)c2cn[nH]c2n1 (stereo not drawn) [Compound 46, N4-(1-(3,4-difluorophenylsulfonyl)-1,2,3,4-tetrahydroquinolin-3-yl)-1H-pyrazolo[3,4-d]pyrimidine-4,6-diamine] | < 50 | < 50 | < 50 | < 50 | < 50
12 | Nc1nc(NC2Cc3ccccc3N(S(=O)(=O)c3cccc(NC(=O)Nc4c(F)cccc4C(F)(F)F)c3)C2)c2cn[nH]c2n1 (stereo not drawn) [Compound 204, 1-[3-({3-[(6-amino-1H-pyrazolo[3,4-d]pyrimidin-4-yl)amino]-3,4-dihydroquinolin-1(2H)-yl}sulfonyl)phenyl]-3-[2-fluoro-6-(trifluoromethyl)phenyl]urea] | < 50 | < 50 | < 50 | < 50 | 50 to 79
13 | Nc1nc(NC2Cc3ccccc3N(Cc3ccccc3-c3ccc(F)cc3)C2)c2cn[nH]c2n1 (stereo not drawn) [Compound 159, N4-{1-[(4′-fluorobiphenyl-2-yl)methyl]-1,2,3,4-tetrahydroquinolin-3-yl}-1H-pyrazolo[3,4-d]pyrimidine-4,6-diamine] | < 50 | < 50 | < 50 | < 50 | < 50
14 | Nc1nc(NC2Cc3ccccc3N(C(=O)c3cc(F)cc(F)c3F)C2)c2cn[nH]c2n1 (stereo not drawn) [Compound 92, (3-(6-amino-1H-pyrazolo[3,4-d]pyrimidin-4-ylamino)-3,4-dihydroquinolin-1(2H)-yl)(2,3,5-trifluorophenyl)methanone] | > 79 | > 79 | > 79 | 50 to 79 | > 79
15 | Nc1nc(NC2Cc3ccccc3N(C(=O)COc3ccccc3)C2)c2cn[nH]c2n1 (stereo not drawn) [Compound 85, 1-(3-(6-amino-1H-pyrazolo[3,4-d]pyrimidin-4-ylamino)-3,4-dihydroquinolin-1(2H)-yl)-2-phenoxyethanone] | < 50 | < 50 | < 50 | < 50 | < 50
16 | Nc1nc(NC2Cc3ccccc3N(S(=O)(=O)c3ccc(Br)c(F)c3)C2)c2cn[nH]c2n1 (stereo not drawn) [Compound 62, N4-(1-(4-bromo-3-fluorophenylsulfonyl)-1,2,3,4-tetrahydroquinolin-3-yl)-1H-pyrazolo[3,4-d]pyrimidine-4,6-diamine] | < 50 | < 50 | < 50 | < 50 | < 50
17 | Nc1nc(NC2Cc3ccccc3N(S(=O)(=O)c3cccc(NC(=O)Nc4ccc(Cl)c(C(F)(F)F)c4)c3)C2)c2cn[nH]c2n1 (stereo not drawn) [Compound 223, 1-(3-(3-(6-amino-1H-pyrazolo[3,4-d]pyrimidin-4-ylamino)-3,4-dihydroquinolin-1(2H)-ylsulfonyl)phenyl)-3-(4-chloro-3-(trifluromethyl)phenyl)urea] | > 79 | > 79 | > 79 | > 79 | > 79
18 | Nc1nc(NC2Cc3ccccc3N(Cc3cc(Cl)ccc3C(F)(F)F)C2)c2cn[nH]c2n1 (stereo not drawn) [Compound 163, N4-{1-[5-chloro-2-(trifluoromethyl)benzyl]-1,2,3,4-tetrahydroquinolin-3-yl}-1H-pyrazolo[3,4-d]pyrimidine-4,6-diamine] | > 79 | > 79 | > 79 | > 79 | > 79
19 | Nc1nc(NC2Cc3ccccc3N(S(=O)(=O)c3cccc(NC(=O)Nc4cccc(F)c4)c3)C2)c2cn[nH]c2n1 (stereo not drawn) [Compound 219, 1-[3-({3-[(6-amino-1H-pyrazolo[3,4-d]pyrimidin-4-yl)amino]-3,4-dihydroquinolin-1(2H)-yl}sulfonyl)phenyl]-3-(3-fluorophenyl)urea] | > 79 | > 79 | > 79 | > 79 | > 79
20 | Nc1nc(NC2Cc3ccccc3N(S(=O)(=O)c3ccc(Cl)cc3)C2)c2cn[nH]c2n1 (stereo not drawn) [Compound 35, N4-(1-(4-chlorophenylsulfonyl)-1,2,3,4-tetrahydroquinolin-3-yl)-1H-pyrazolo[3,4-d]pyrimidine-4,6-diamine] | < 50 | < 50 | < 50 | < 50 | < 50
21 | Nc1nc(NC2Cc3ccccc3N(C(=O)C3CCC3)C2)c2cn[nH]c2n1 (stereo not drawn) [Compound 103, (3-(6-amino-1H-pyrazolo[3,4-d]pyrimidin-4-ylamino)-3,4-dihydroquinolin-1(2H)-yl)(cyclobutyl)methanone] | > 79 | > 79 | > 79 | > 79 | > 79
